In PMC3515450, “Mechanistic and Structural Understanding of Uncompetitive Inhibitors of Caspase-6” (PLoS ONE, 2012):

Key:
Format in all cases: biochemical
caspase-3 = target: T1, caspase-3 (Homo sapiens, UniProt P42574); experiment: Caspase-3 enzymatic assay with divalent R110 substrates
T1 construct: as the catalytic domain consisting of large p20 and small p10 subunits without prodomain; made in house
T1 sequence (P42574 29-175 limits assumed): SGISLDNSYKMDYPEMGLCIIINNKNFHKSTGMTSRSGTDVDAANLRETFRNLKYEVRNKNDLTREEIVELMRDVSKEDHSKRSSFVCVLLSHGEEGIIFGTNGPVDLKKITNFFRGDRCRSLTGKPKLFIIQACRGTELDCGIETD
T1 sequence (P42574 176-277 limits assumed): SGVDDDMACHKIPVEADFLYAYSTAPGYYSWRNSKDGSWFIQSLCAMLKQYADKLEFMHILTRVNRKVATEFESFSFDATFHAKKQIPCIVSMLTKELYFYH
Experimental: (§1) The in vitro enzymatic caspase assays utilize synthetic tetrapeptide substrates labeled with the fluorophores Rhodamine110 (R110) or 7-amino-4-methylcoumarin (AMC) at the P1 aspartic acid (Asp) residue. All assays were performed in 384-well plates in 12 µL reaction volume consisting of enzyme, substrate and indicated concentration of inhibitor or DMSO in assay buffer (50 mM HEPES [pH 7.0], 25 mM MgSO4, 0.5 mM EGTA, 5 mM Glutathione (GSH), 0.01% Triton X-100 containing 0.1% Bovine Gamma Globulin (BGG)). All inhibitors were serially diluted in 100% DMSO prior to dilution in assay buffer and transfer to assay plate. DMSO was diluted into assay buffer similarly for blank wells (no enzyme or compound) and final DMSO concentration was 1%. The concentration of caspase-6 used in enzymatic reactions typically varied between 1–10 nM depending on substrate used. Unless otherwise indicated, substrate concentration was within 3-fold of the determined Kmapparent (5 µM (Ac-VEID)2R110 [Kmapp = 8 µM]; 5 µM (Ac-DEVD)2R110 [Kmapp = 8 µM]; 25 µM (Ac-IETD)2R110 [Kmapp = 70 µM]; 25 µM (Ac-WEHD)2R110 [Kmapp = 70 µM]; 10µM Ac-VEID-AMC [Kmapp = 16µM]; 5 µM Ac-VEID-R110 [Kmapp = 8 µM]). The concentration of substrate utilized in selectivity assays for each caspase isoform was also held as close to Kmapparent as reasonably achievable (Table S1). Caspases-3 and -7 were expressed and purified at Genentech as the catalytic domain consisting of large p20 and small p10 subunits without prodomain. For all caspase enzymatic assays, the reaction plate was incubated at room temperature for 40 minutes and then read on Envision (Perkin Elmer) fluorescent plate reader at excitation/emission wavelengths of 485/535 nm (R110) or 350/450 nm (AMC).
The endpoint fluorescent emission (RFU) in each well was plotted as a function of inhibitor concentration and the 50% inhibition (IC50) values were determined using a nonlinear least squares fit of the data to a four parameter equation using Prism 5.0 software (GraphPad Software, San Diego, CA). […]

caspase-7 = target: T2, caspase-7 (Homo sapiens, UniProt P55210); experiment: Caspase-7 enzymatic assay with divalent R110 substrate; details: caspase-7, (DEVD)2R110 substrate
T2 construct: as the catalytic domain consisting of large p20 and small p10 subunits without prodomain; made in house
T2 sequence (P55210 24-198 limits assumed): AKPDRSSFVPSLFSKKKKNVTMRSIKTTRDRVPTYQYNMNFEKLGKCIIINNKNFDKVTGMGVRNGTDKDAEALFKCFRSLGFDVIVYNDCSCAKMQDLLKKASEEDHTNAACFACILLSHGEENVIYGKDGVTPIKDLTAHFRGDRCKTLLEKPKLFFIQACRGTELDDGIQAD
T2 sequence (P55210 207-303 limits assumed): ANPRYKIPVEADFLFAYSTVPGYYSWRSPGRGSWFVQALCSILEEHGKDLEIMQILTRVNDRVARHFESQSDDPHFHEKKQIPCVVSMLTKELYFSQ
Experimental: as §1, with “The concentration of caspase-6 used in enzymatic reactions typically varied between 1–10 nM depending on substrate used.” left out, “The concentration of substrate utilized in selectivity assays for each caspase isoform was also held as close to Kmapparent as reasonably achievable (Table S1). Caspases-3 and -7 were expressed and purified at Genentech as the catalytic domain consisting of large p20 and small p10 subunits without prodomain.” left out, “(AMC). […]” for “(AMC).”

caspase-6 = target: T3, caspase-6 (Homo sapiens, UniProt P55212); experiment: Steady-state Michaelis-Menten kinetic analysis of caspase-6
T3 construct: Residues 24-179 and 194-293 from caspase-6 cDNA (Origene) were cloned into pET-24b and pET-23b vectors; 6x histidine tag (C); made in house; host or cells: E. coli BL21 (DE3) pLysS
T3 sequence (P55212 24-179): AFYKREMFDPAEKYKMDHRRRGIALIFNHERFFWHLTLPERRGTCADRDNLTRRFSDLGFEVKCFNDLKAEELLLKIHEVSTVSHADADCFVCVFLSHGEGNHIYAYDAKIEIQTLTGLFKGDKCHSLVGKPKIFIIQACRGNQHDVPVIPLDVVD
T3 sequence (P55212 194-293): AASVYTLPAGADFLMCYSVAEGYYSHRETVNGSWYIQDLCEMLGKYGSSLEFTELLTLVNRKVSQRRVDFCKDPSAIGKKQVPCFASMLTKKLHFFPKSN
Experimental: as §1
The endpoint fluorescent emission (RFU) in each well was plotted as a function of inhibitor concentration and the 50% inhibition (IC50) values were determined using a nonlinear least squares fit of the data to a four parameter equation using Prism 5.0 software (GraphPad Software, San Diego, CA). […] Ki values for Compound 3 were calculated using this equation: Ki = IC50/(Km/[S] +1). Concentration-response curves for each inhibitor were normalized to zero and 100% based on no enzyme or DMSO control, respectively. For steady-state kinetic analysis, initial reaction velocity (RFU/minute) was plotted against substrate concentration at each inhibitor concentration and the data was fit to a hyperbolic Michaelis-Menten model using Prism 5.0 software. Km (µM) and Vmax (RFU/minute) were calculated by using this equation: v = Vmax • [S]/Km+[S] where v = initial reaction velocity at indicated substrate concentration (S). Vmax values were normalized to zero and 100% based on no enzyme or DMSO control, respectively.

COc1ccc(-c2cc(C(=O)N[C@@H](CO)Cc3cccc(C#N)c3)co2)cc1OC [Compound 3]
IC50 (caspase-3; caspase-3, (DEVD)2R110 substrate): > 100 µM
IC50 (caspase-3; caspase-3, (VEID)2R110 substrate): > 100 µM
IC50 (caspase-7): > 100 µM
Vmax (% of DMSO control) for (VEID)2R110 (caspase-6; 3 nM of 3): 77.51 % of DMSO control
Vmax (% of DMSO control) for (VEID)2R110 (caspase-6; 10 nM of 3): 55.35 % of DMSO control
Vmax (% of DMSO control) for (VEID)2R110 (caspase-6; 30 nM of 3): 31.09 % of DMSO control
Vmax (% of DMSO control) for (VEID)2R110 (caspase-6; 100 nM of 3): 14.10 % of DMSO control
mechanism of inhibition (caspase-6; (DEVD)2R110 substrate): uncompetitive
mechanism of inhibition (caspase-6; (VEID)2R110 substrate): uncompetitive
